Results: PubChem BioAssay AID2060606 (Molecular Pharmacology Branch, DTP, NCI, 2025)

Tested on: 922993-354-T-J3-PDC complex spheroids, viability, % test/control
Assay: Anticancer human tumor 922993-354-T-J3-PDC patient-derived endometrial carcinoma cell line growth inhibition [CLK]
Settings: for IC50: curve of first compound; for viability, T/C: stronger effect = lower value
Text: A high-throughput screen of multi-cell type tumor spheroids was designed to identify active combinations of […] and targeted small molecules. Complex spheroids include a stromal component modeled by human endothelial cells (HUVEC) and fibroblasts modeled by human mesenchymal stem cells (MSCs). The concentration ranges selected for each drug and investigational agent were based upon clinically achievable concentrations if the clinical Cmax of the agent was known.
Compounds. The drugs and investigational agents: cirtuvivint (SM08502; NSC835563), CC-671 (NSC850746), vemurafenib (NSC761431), tapotoclax (NSC804041), sotorasib (NSC818433), adagrasib (NSC831453), MRTX-1133 (NSC836407), BAY2416964 (NSC825713), copanlisib (NSC816437), inavolisib (NSC800729), abemaciclib (NSC768073), osimertinib (NSC779217), entinostat (NSC756642), eltanexor (KPT-8602, NSC794443), venetoclax (NSC766270), ceralasertib (NSC777638), bortezomib (NSC756655), olaparib (NSC753686), talazoparib (NSC767125), alisertib (NSC759677), peposertib (NSC802822), gemcitabine (NSC613327), 5-fluorouracil (NSC19893), SN-38 (NSC673596), oxaliplatin (NSC266046), paclitaxel (NSC125973), and doxorubicin (NSC123127), were obtained from the National Cancer Institute (NCI) Developmental Therapeutics Program Chemical Repository. The FDA-approved anticancer drug set is available from the Developmental Therapeutics Program at https://dtp.cancer.gov/organization/dscb/obtaining/available plates.htm. […] The stock solutions were prepared in dimethyl sulfoxide (DMSO, Sigma-Aldrich, St. Louis, MO, cat. D2650), except for the platinum complexes which were prepared in saline (Quality Biological, Gaithersburg, MD, cat. 114-055-101), at 800-fold the tested concentration and stored at -70 degrees C prior to their use. All drugs and investigational agents were tested over a range starting from a high concentration at or near the clinical Cmax and decreasing in half-log increments. If the clinical Cmax for an agent had not been determined, the highest concentration tested was 10 microM.
Cell Culture. All cells were maintained in an incubator at 37 degrees C and 5% CO2 with 95% humidity. The PDC lines were cultured according to standard operating procedures established by the NCI PDMR. Briefly, all PDCs were thawed and cultured in Matrigel-coated flasks prepared with a working solution of 1X Ham's F-12 nutrient mix, without supplementation (Invitrogen, Waltham, MA, cat. 11765054), 100 U/mL penicillin-streptomycin (Invitrogen, cat. 15140122), and 2.5% Matrigel (Corning Inc., Corning, NY, cat. 354248) for the first three passages. The 947758-054-R-J2-PDC line was cultured in 6B/Colon 1A media, which includes advanced DMEM/F-12 (Thermo Fisher Scientific, cat. 12634028), 10 mM HEPES (Thermo Fisher Scientific, cat. 15630080), 1X GlutaMAX supplement (Thermo Fisher Scientific, cat. 35050061), 0.1 mg/mL primocin (InvivoGen, cat. ant-pm-2), 10% defined fetal bovine serum, heat inactivated (HyClone Laboratories Inc., cat. SH30070.03HI), 1.25 mM N-Acetyl-L-cysteine (Sigma-Aldrich, cat. A9165), 10 mM nicotinamide (Sigma-Aldrich, cat. N0636), 1X B-27 supplement (Thermo Fisher Scientific, cat. 17504044), 1X N-2 supplement (Thermo Fisher Scientific, cat. 17502048), and 10 microM Y-27632 dihydrochloride (Tocris Bioscience, cat. 1254). The 876862-298-R-J1-PDC was cultured in 6E media, which includes all 6B/Colon 1A media components plus 50% L-WRN conditioned media (ATCC, cat. CRL-3276), 50 ng/mL recombinant human EGF recombinant protein (hEGF; Thermo Fisher Scientific, cat. PHG0311), 10 ng/mL recombinant human fibroblast growth factor 10 (hGFG-10; PeproTech, cat. 100-26), 1 ng/mL recombinant human fibroblast growth factor 2 (hFGF-2; PeproTech, cat. 100-18B), and 1 µM prostaglandin E2 (PGE2; Tocris, cat. 2296). The 227483-062-R1-J1-PDC line was cultured in Panc media, containing all 6E components except hFGF-2, with the addition of 500 nM SB-431542 (Selleckchem, cat. S1067) and 10 nM gastrin (Tocris, cat. 3006). […]
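Note: spheroids exposed to the agents for 7 days before readout.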

SMILES: C=CC(=O)Nc1cc(Nc2nccc(-c3cn(C)c4ccccc34)n2)c(OC)cc1N(C)CCN(C)C + CNC(=O)c1ccc(Nc2nc(OC3CCCC3)c3c(-c4ccc5nc(C)oc5c4)c[nH]c3n2)c(OC)c1
- IC50 (second compound 0.0316 µM): > 300 nM
- IC50 (second compound 0.1 µM): > 300 nM
- IC50 (second compound 0.316 µM): > 300 nM
- IC50 (second compound 1 µM): < 0.949 nM
- IC50 (second compound 3.16 µM): < 0.949 nM
- IC50 (second compound 10 µM): < 0.949 nM
- viability, T/C (second compound 0.0316 µM, first compound 0.000949 µM): 106%
- viability, T/C (second compound 0.0316 µM, first compound 0.003 µM): 105%
- viability, T/C (second compound 0.0316 µM, first compound 0.00949 µM): 106%
- viability, T/C (second compound 0.0316 µM, first compound 0.03 µM): 102%
- viability, T/C (second compound 0.0316 µM, first compound 0.0949 µM): 96.9%
- viability, T/C (second compound 0.0316 µM, first compound 0.3 µM): 89.2%
- viability, T/C (second compound 0.1 µM, first compound 0.000949 µM): 97.5%
- viability, T/C (second compound 0.1 µM, first compound 0.003 µM): 107%
- viability, T/C (second compound 0.1 µM, first compound 0.00949 µM): 96.4%
- viability, T/C (second compound 0.1 µM, first compound 0.03 µM): 98.3%
- viability, T/C (second compound 0.1 µM, first compound 0.0949 µM): 91.2%
- viability, T/C (second compound 0.1 µM, first compound 0.3 µM): 86%
- viability, T/C (second compound 0.316 µM, first compound 0.000949 µM): 70.7%
- viability, T/C (second compound 0.316 µM, first compound 0.003 µM): 58.9%
- viability, T/C (second compound 0.316 µM, first compound 0.00949 µM): 55.5%
- viability, T/C (second compound 0.316 µM, first compound 0.03 µM): 42%
- viability, T/C (second compound 0.316 µM, first compound 0.0949 µM): 57.1%
- viability, T/C (second compound 0.316 µM, first compound 0.3 µM): 51.2%
- viability, T/C (second compound 1 µM, first compound 0.000949 µM): 37.5%
- viability, T/C (second compound 1 µM, first compound 0.003 µM): 34.9%
- viability, T/C (second compound 1 µM, first compound 0.00949 µM): 41.9%
- viability, T/C (second compound 1 µM, first compound 0.03 µM): 42%
- viability, T/C (second compound 1 µM, first compound 0.0949 µM): 34.6%
- viability, T/C (second compound 1 µM, first compound 0.3 µM): 35.5%
- viability, T/C (second compound 3.16 µM, first compound 0.000949 µM): 35.8%
- viability, T/C (second compound 3.16 µM, first compound 0.003 µM): 33%
- viability, T/C (second compound 3.16 µM, first compound 0.00949 µM): 34%
- viability, T/C (second compound 3.16 µM, first compound 0.03 µM): 34.6%
- viability, T/C (second compound 3.16 µM, first compound 0.0949 µM): 34%
- viability, T/C (second compound 3.16 µM, first compound 0.3 µM): 29.9%
- viability, T/C (second compound 10 µM, first compound 0.000949 µM): 26.8%
- viability, T/C (second compound 10 µM, first compound 0.003 µM): 29.7%
- viability, T/C (second compound 10 µM, first compound 0.00949 µM): 30%
- viability, T/C (second compound 10 µM, first compound 0.03 µM): 30.2%
- viability, T/C (second compound 10 µM, first compound 0.0949 µM): 29%
- viability, T/C (second compound 10 µM, first compound 0.3 µM): 32.5%
